The text below walks through data of patent publication US20080207695A1, “Thrombin Inhibiting 2-Oxo-1,2,5,6-Tetrahydropyridine Derivatives” (ASTRAZENECA AB, priority 2005, published 2008).

Data set [1] can be described thus: Test F: in vitro (liver microsome) stability, human liver microsomes. It counts as in vitro ADME. Particulars: liver microsomes from humans, NADPH, 37° C. On the procedure:
(§1) Determination of In Vitro (Liver Microsome) Stability
(§2) Liver microsomes are prepared from Sprague-Dawley rats and human liver samples according to internal SOPs. The compounds are incubated at 37° C. at a total microsome protein concentration of 0.5 mg/mL in a 0.1 mol/L potassium phosphate buffer at pH 7.4, in the presence of the cofactor, NADPH (1.0 mmol/L). The initial concentration of compound is 1.0 μmol/L. Samples are taken for analysis at 5 time points, 0, 7, 15, 20 and 30 minutes after the start of the incubation. The enzymatic activity in the collected sample is immediately stopped by adding an equal volume of acetonitrile containing 0.8% formic acid. The concentration of compound remaining in each of the collected samples is determined by means of LC-MS/MS. The elimination rate constant (k) of the thrombin inhibitor is calculated as the slope of the plot of ln[Thrombin inhibitor] against incubation time (minutes). The elimination rate constant is then used to calculate the half-life (T1/2) of the thrombin inhibitor, which is subsequently used to calculate the intrinsic clearance (CLint) of the thrombin inhibitor in liver microsomes as: […]
A general note: Microsomes from liver hold many membrane-bound enzymes, among them those of drug oxidation.

Data set [2] in a line: Test F: in vitro (liver microsome) stability, rat liver microsomes. It counts as in vitro ADME, Sprague-Dawley rats. Particulars: liver microsomes from rats, NADPH, 37° C. On the procedure: as §1, §2

For `CC(=O)OCc1nc(N)cc(C)c1CNC(=O)CC1=C(C)CCN(NCC(F)(F)c2ccccn2)C1=O` [Example 2, (6-Amino-3-{[({1-[(2,2-difluoro-2-pyridin-2-ylethyl)amino]-4-methyl-2-oxo-1,2,5,6-tetrahydropyridin-3-yl}acetyl)amino]methyl}-4-methylpyridin-2-yl)-methyl acetate], the “conversion to the corresponding active inhibitor (title compound of Example 1)” value in data set [1] and in data set [2] was “converted to the corresponding active inhibitor” throughout.

Consider `CC1=C(CC(=O)NCc2c(C)cc(N)nc2COC(=O)c2ccccc2)C(=O)N(NCC(F)(F)c2ccccn2)CC1` [Example 3, (6-Amino-3-{[({1-[(2,2-difluoro-2-pyridin-2-ylethyl)amino]-4-methyl-2-oxo-1,2,5,6-tetrahydropyridin-3-yl}acetyl)amino]methyl}-4-methylpyridin-2-yl)-methyl benzoate], for which the “conversion to the corresponding active inhibitor (title compound of Example 1)” value in data set [1] and in data set [2] was “converted to the corresponding active inhibitor” throughout.
